“Also recorded” adds a separate entry of the source.
Experiments:
KM12C cells [1] = assay: Western blot of apoptosis-related proteins, KM12C cells; assay type: cell-based, human
Protocol: (§1) Cell culture transfection was carried out with siPORT™ Amine transfection agent according to the manufacturer's protocol. Three days after transfection with the siRNA duplexes, cells were harvested and protein expression was assessed by Western blot.
(§2) Western immunoblot analyses were performed as described previously (Wang, et al., 2000). Cells were lysed with TNN buffer at 4° C. for 30 min. Lysates were clarified by centrifugation (10,000×g for 30 min at 4° C.) and protein concentrations determined using the method of Bradford (1976). Briefly, total protein (100 μg) was resolved on a 10% polyacrylamide gel and transferred to Immobilon-P […] membranes. Filters were incubated overnight at 4° C. in blotting solution (Tris-buffered saline containing 5% nonfat dried milk and 0.1% Tween 20), followed by a 1-h incubation with primary antibodies. Filters were washed three times in a blocking solution and incubated with horseradish peroxidase-conjugated secondary antibodies for 1 h. After three additional washes, the immune complexes were visualized by ECL detection.

KM20 cells = assay: Western blot of apoptosis-related proteins, KM20 cells; assay type: cell-based, human
Protocol: as §1, §2

PI3K/Akt pathway = assay: Western blot and immunofluorescence of Akt1, p85α and pAkt in transfected KM20 cells; assay type: cell-based, human
Protocol: as §1, §2
KM20 cells were seeded onto sterile glass coverslips in 60 mm dishes and cultured for 16-24 h before treatment. Cells were transfected with pik3r1 or Akt1 or scrambled (control) siRNA sequences. At 96 h posttransfection, cells were washed in PBS, fixed in cold methanol for 5 min, and washed in three changes of PBS followed by a solution of 10% normal goat serum. After washing, cells were then incubated with the primary antibody (diluted in PBS with 1.5% normal goat serum) for 60 min. […] After three final washes, the slides were viewed with a fluorescence microscope.
It is speculated that siRNA directed to PI3K/Akt pathway components would inhibit cell growth and induce apoptosis in human colorectal cancer cell lines. […] In view of evidence that Akt plays a critical role in the prosurvival properties of PI3K (Nichol son, et al., 2002), activation of Akt in pik3r1 and Akt1 siRNA treated cells was then analyzed by Western blot and immunofluorescent analysis using a phospho-specific Ser473 Akt antibody.

KM12C cells [2] = assay: DNA fragmentation assay (Cell Death Detection ELISA), KM12C cells; assay type: cell-based, human
Protocol: Cells were transfected with pik3r1, Akt1 or scrambled siRNA. After 48 h, adherent cells were detached by rapid trypsinization, counted in a Hausser chamber and seeded at a density of 2×10^3 cells per well in 96-well flat-bottom microtiter plates and incubated in 250 μl of growth medium for 24 h at 37° C. Media were removed and either new complete media or TRAIL (100 ng/mL) was added in a final volume of 200 μL and allowed to grow for 24 h at 37° C. After treatment, DNA fragmentation was evaluated by examination of cytoplasmic histone-associated DNA fragments (mono- and oligonucleosomes) using a Cell Death Detection ELISA^Plus kit (Roche Molecular Biochemicals) according to the manufacturer's instructions and as previously described (Wang. et al., 2002). The experiments were repeated on at least 3 separate occasions.

KM20 tumor xenografts = assay: KM20 tumor xenograft growth in nude mice, intratumoral siRNA with electrotherapy; assay type: in vivo; conditions: 5 μg siRNA intratumoral + electric pulses every 3rd day; by day 12, persisted for the study period (30 days)
Protocol: For in vivo studies, 4-6 week old male nude^nu/nu mice were obtained from Harlan Sprague Dawley (Indianapolis, Ind.) and housed in clean pathogen-free rooms in an environment with controlled temperature (22° C.), humidity, and a 12 h light/dark cycle. The mice were fed standard chow (Formula Chow 5008; Purina Mills, St. Louis, Mo.) and tap water ad libitum and allowed to acclimate for one week.
Prior to tumor injection, KM20 cells were harvested, washed twice in ice-cold serum free minimum Eagle's medium, counted for viable cells by trypan blue exclusion. The cells were resuspended in the same medium and used to inject mice subcutaneously (sc) with 2×10^6 cells in a volume of 0.2 ml. After tumors reached ˜60 mm^2, mice were sacrificed and 9 mm^2 tumor xenografts were transferred to the left flank of athymic mice. After tumor xenografts reached ˜60 mm^2 (day 10), mice were randomly divided into three groups (n=5 mice/group): the first group of mice was treated with scrambled siRNA, the second and third groups were treated with siRNA (5 μg diluted in 100 μl of serum free medium) directed against pik3r1 or Akt1, respectively, as intratumoral injections. […] Tumor growth was assessed every third day from day 10 onward by measuring the two greatest perpendicular tumor dimensions using vernier calipers (Mitutozo, Tokyo, Japan) (Wang, et al., 2002). […]

[3] = siRNA in combination with TRAIL

Substance: pik3r1 siRNA: siRNA to human pik3r1 (p85α) used in KM20/KM12C cells and xenografts; SEQ ID NO:24 vs. SEQ ID NO:25 (chain 1 GAAUAUACCCGCACAUCCCUU; chain 2 GGGAUGUGCGGGUAUAUUCUU; listed as RNA, chemistry not given here)
- Bax protein expression (KM12C cells [1]): increased
- Bcl-2 protein expression (KM12C cells [1]): decreased
- Bcl-xL protein expression (KM12C cells [1]): decreased
- caspase-9 activation (35 kDa large active subunit) (KM12C cells [1]): activation
- cytochrome C release (KM12C cells [1]): induced
- Bax protein expression (KM20 cells): increased
- Bcl-2 protein expression (KM20 cells): decreased
- Bcl-xL protein expression (KM20 cells): decreased
- caspase-9 activation (35 kDa large active subunit) (KM20 cells): activation
- cytochrome C release (KM20 cells): induced
- protein expression for DR4/DR5 (KM20 cells): increased
- BID cleavage (KM20 cells; [3]): BID cleavage
- caspase-8 activation (KM20 cells; [3]): activated
- cleavage of pro-caspase-3 (KM20 cells; siRNA in combination with TRAIL compared with TRAIL alone): enhanced
- pAkt expression (immunofluorescent analysis) (PI3K/Akt pathway; 96 h posttransfection, compared with scrambled sequences): suppression
- p85α protein levels (PI3K/Akt pathway; Western blot, 72, 96 and 120 h after transfection in Example 19): reduced; also recorded: decreased
- pAkt expression levels (PI3K/Akt pathway; Western blot, phospho-Ser473 Akt antibody): suppressed; also recorded: decreased
- DNA fragmentation (apoptosis) (KM12C cells [2]; siRNA alone compared to scrambled sequence): increase; also recorded: induced
- TRAIL-mediated apoptosis (DNA fragmentation) (KM12C cells [2]; siRNA in combination with TRAIL 100 ng/mL): significant augmentation
- KM20 tumor growth (KM20 tumor xenografts): Significant inhibitory effects

From patent publication US20050272682A1, “SiRNA targeting PI3K signal transduction pathway and siRNA-based therapy” (priority 2004, published 2005)
